Data: PMC11434613, “The Remarkable and Selective In Vitro Cytotoxicity of Synthesized Bola-Amphiphilic Nanovesicles on Etoposide-Sensitive and -Resistant Neuroblastoma Cells” (Nanomaterials, 2024)

Experiments:
HTLA-ER cells [1] = test: Cell viability assay (CellTiter 96 AQueous One Solution) on etoposide-resistant HTLA-ER NB cells; type: cell-based, human; details: average IC50 on three human normal oral cell lines (ref 69) / IC50 on HTLA-ER after 24 h (ref 58)
From the text: HTLA-230 human stage-IV NB cells were kindly provided by Dr. L. Raffaghello (G. Gaslini Institute, Genoa, Italy). The HTLA-ER cells were selected by treating HTLA-230 parental cells for six months with increasing concentrations of etoposide, as previously reported. Both cell populations were maintained in RPMI 1640 medium (Euroclone Spa, Pavia, Italy) supplemented with 10% fetal bovine serum (FBS, Euroclone Spa, Pavia, Italy), 1% L-glutamine (Euroclone Spa, Pavia, Italy), and 1% Penicillin/Streptomicin (Euroclone Spa, Pavia, Italy) and grown in standard conditions (37 °C humidified incubator with 5% CO2).
To determine the cytotoxic effects of BPPB, in vitro time- and dose-dependent experiments were carried out. Cells were first treated for 24, 48, and 72 h, with increasing concentrations (0.5–50 µM) of the compound. In a subsequent series of the experiments, cells were treated for 24, 48, and 72 h with increasing concentration of BPPB in the range of 0.1–2 µM. […] Cell cultures were carefully monitored before and during the experiments to ensure optimal cell density.
Cell viability was determined by using the CellTiter 96® AQueous One Solution Cell Proliferation Assay (Promega, Madison, WI, USA), as previously described. Briefly, cells (10,000 cells/well) were seeded into 96-well plates (Corning Incorporated, Corning, NY, USA) and then treated. Next, cells were incubated with 20 µL of CellTiter, and the absorbance at 490 nm was recorded using a microplate reader (EL-808, BIO-TEK Instruments Inc., Winooski, VT, USA). IC50 was evaluated by GraphPad Prism 5.4.2 Software (GraphPad Software, Boston, MA, USA).
Results are expressed as the means ± S.D. of at least four independent experiments in which six different wells were analyzed every time for each experimental condition. The statistical significance of differences was determined by two-way analysis of variances (ANOVA) followed by Tukey’s multicomparison test using GraphPad Prism 8.0 (GraphPad Software v8.0, San Diego, CA, USA); p < 0.05 was considered statistically significant. Asterisks or other indicators (see Figures captions) indicate the following p-value ranges: p > 0.05 no symbols, * = p < 0.05, ** = p < 0.01, *** = p < 0.001, **** = p < 0.0001.

[2] = test system: HTLA-230 human stage-IV NB cells; details: 100 µM for 24 h; cited from earlier work
HTLA-ER cells [3] = details: cited from earlier work

COc1cc([C@@H]2c3cc4c(cc3[C@@H](O[C@@H]3O[C@@H]5CO[C@@H](C)O[C@H]5[C@H](O)[C@H]3O)[C@H]3COC(=O)[C@H]23)OCO4)cc(OC)c1O [ETO, etoposide]
Etoposide SI for HTLA-ER NB cells (HTLA-ER cells [1]): 0.32 | Cell viability HTLA-230 [2]: ~70% | Cell viability HTLA-ER (HTLA-ER cells [3]; 100 µM for 24 h): over 80% | IC50 (HTLA-ER cells [3]; 24 h of exposure, read-out: Extrapolated IC50 on HTLA-ER): 592 µM
